# Measured values: patent US11497713B2, “Combination taxoid nanoemulsion with immunotherapy in cancer” (TargaGenix, Inc., priority 2017, dated 2022)
# “Also recorded” adds a separate entry of the source. Like-named read-outs stand apart in the source and are kept apart here.
# Legend:
# [1] = tested on: colon and prostate cancer cell lines grown as spheroids; experiment: Spheroid assay with CD133high/CD44high colon and prostate cancer cells; assay type: cell-based; conditions: cells selected for CD133high/CD44high
# Source text: The results from experiments using DHA-SBT-1214 in two human pancreatic tumor models (FIGS. 2 and 3) and a proof-of-concept in patient-derived CSC model are described below. The compelling aspects of DHA-SBT-1214 preclinical activity is its effects on CSCs. Highly plastic CSCs are an important new drug target in the treatment of refractory tumors. Through the development of drugs specifically targeting CSCs (or targeting CSCs in addition to tumor cells) a more durable clinical response may be possible. In addition to the previously described cytotoxicity assays in cell cultures, DHA-SBT-1214 was tested in colon and prostate cancer cell lines grown as spheroids from cells selected for being CD133^high/CD44^high, characteristic of stem cells. […] Perhaps more significant was the effect of exposure to relatively low concentrations of DHA-SBT-1214 (100 nM to 1 μM) for 24 hours on the expression of genes associated with “sternness” in several colon and prostate cancer cells lines grown as microspheres (6,7).
# [2] = target: P-glycoprotein (P-gp) transporter (Homo sapiens, UniProt P08183); conditions: cited from earlier work
# Chain of P-glycoprotein (P-gp) transporter (P08183 whole entry): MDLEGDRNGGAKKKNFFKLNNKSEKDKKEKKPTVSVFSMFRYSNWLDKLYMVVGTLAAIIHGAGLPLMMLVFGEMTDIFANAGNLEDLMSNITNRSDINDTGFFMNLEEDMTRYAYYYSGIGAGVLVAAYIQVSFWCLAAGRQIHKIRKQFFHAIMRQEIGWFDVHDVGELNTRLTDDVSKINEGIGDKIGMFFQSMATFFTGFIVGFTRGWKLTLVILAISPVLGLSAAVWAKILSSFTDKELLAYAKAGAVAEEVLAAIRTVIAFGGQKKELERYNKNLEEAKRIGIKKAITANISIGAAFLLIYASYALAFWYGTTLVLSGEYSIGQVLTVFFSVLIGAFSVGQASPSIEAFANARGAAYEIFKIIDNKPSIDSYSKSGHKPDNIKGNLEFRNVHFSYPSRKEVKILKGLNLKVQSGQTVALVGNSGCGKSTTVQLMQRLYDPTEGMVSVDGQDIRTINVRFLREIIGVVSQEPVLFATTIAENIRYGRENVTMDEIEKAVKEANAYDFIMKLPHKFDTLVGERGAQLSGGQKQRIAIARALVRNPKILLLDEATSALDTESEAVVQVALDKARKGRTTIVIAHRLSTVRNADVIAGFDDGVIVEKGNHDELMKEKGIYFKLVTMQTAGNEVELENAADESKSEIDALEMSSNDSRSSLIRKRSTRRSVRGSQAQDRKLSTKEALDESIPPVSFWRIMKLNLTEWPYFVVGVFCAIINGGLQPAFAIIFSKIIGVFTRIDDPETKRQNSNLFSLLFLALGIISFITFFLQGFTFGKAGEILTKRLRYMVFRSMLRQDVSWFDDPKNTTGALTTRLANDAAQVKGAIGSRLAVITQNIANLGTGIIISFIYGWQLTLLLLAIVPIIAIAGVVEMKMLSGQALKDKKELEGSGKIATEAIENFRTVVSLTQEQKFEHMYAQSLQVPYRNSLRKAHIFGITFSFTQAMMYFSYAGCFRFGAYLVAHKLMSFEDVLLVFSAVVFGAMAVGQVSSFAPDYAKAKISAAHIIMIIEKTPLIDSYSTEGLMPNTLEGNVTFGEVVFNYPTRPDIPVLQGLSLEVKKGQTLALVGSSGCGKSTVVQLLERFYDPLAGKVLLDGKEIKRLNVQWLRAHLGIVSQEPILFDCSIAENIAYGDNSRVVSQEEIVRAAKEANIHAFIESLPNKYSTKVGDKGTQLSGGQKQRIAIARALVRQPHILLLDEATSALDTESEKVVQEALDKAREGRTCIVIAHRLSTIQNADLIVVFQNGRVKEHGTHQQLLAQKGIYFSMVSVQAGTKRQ
# [3] = tested on: drug-resistant colon tumor xenografts; experiment: Drug-resistant colon tumor xenografts; assay type: in vivo; conditions: all surviving mice
# [4] = tested on: human CFPAC-1 pancreatic tumor xenograft; experiment: Human CFPAC-1 pancreatic tumor xenograft efficacy (FIG. 2); assay type: in vivo, mice; conditions: 240 mg/kg or 300 mg/kg total dose
# [5] = tested on: drug-resistant cell lines expressing MDR phenotypes; conditions: cited from earlier work
# [6] = Formulation concentration, droplet properties and storage stability
# Source text: The droplet size is consistently less than 200 nm in diameter allowing one to filter sterilize the final formulation. The zeta potential of the nanoemulsion is in the range of negative 23 mV to 33 m.
# [7] = tested on: patient-derived PPT2 prostate cancer stem cell xenograft; experiment: Patient-derived prostate cancer stem cell (PPT2) xenograft model; assay type: in vivo, mice; conditions: patient-derived prostate CSC xenograft
# [8] = tested on: CSCs purified from three human colon cancer cell lines, DLD-1, HTC-116, and HT-29; conditions: cited from earlier work
# [9] = tested on: highly drug resistant tumor xenografts; experiment: Highly drug resistant tumor xenografts in mice; conditions: mouse, in vivo
# PDAC = conditions: cited from earlier work
# [10] = tested on: PD-L1, PD-1, CD4, CD8 and Arginase-1 expression in tumor tissues; experiment: RT-PCR and western blotting of Panc02 tumor tissues; assay type: in vivo, mouse; conditions: anti-PD-L1 combination versus IgG treated group
# Protocol: Cells and tumor tissues were washed twice with phosphate-buffered saline (PBS) and lysed in ice-cold lysis buffer containing 2% proteinase inhibitor (both from Sigma-Aldrich Co., St. Louis, Mo., USA). Cells were retrieved with a cell scraper, stirred and incubated on ice for 15 minutes. Mice tumor tissues were sonicated for 10 seconds on ice with sonicator. Lysates were centrifuged, supernatants were collected, and protein concentration was determined using the Bio-Rad protein assay (Bio-Rad Laboratories, Hercules, Calif., USA). The supernatants were diluted with lysis buffer to create equal concentrations of protein. […] Immunocomplexes were detected using western blotting (ECL Prime; GE Healthcare UK Ltd., Buckinghamshire, UK).
# The expression level of PD-L1 and mRNA for other proteins was determined using real-time PCR as previously described. […] Relative quantifications of gene expression with qRT-PCR data were calculated relative to murine β-actin.
# To investigate how the anticancer agents, induce PD-L1, PD-1, CD4, CD8 and Arginase-1 mRNA expression in pancreatic cancer tumor tissues, the mRNA level of PD-L1, PD-1, CD4, CD8, and Arginase-1 either alone or in combination of immune checkpoint inhibitor was determined by RT-PCR. […]
SMILES,number of spheroids [1],substrate for MDR mechanisms such as P-gp over-expression [2],tumor growth delay [3] [days],tumor regression [3],weight loss [4],potency higher than those of paclitaxel and docetaxel [5],increase in drug concentration in omega-3 fatty acid based nanoemulsion by DHA conjugation [6] [fold],stability ([6]; in Solutol-HS15),formulated drug concentration ([6]; in Tween 80 or Solutol-HS15) [mg/mL],"efficacy (tumor growth, survival) [7]",expression of stem related genes [8],efficacy [9],median overall survival (PDAC; MPACT Phase III clinical trial) [months],"median overall survival (PDAC; randomized Phase III trial, gemcitabine versus 5-FU) [months]",PD-1 and CD4 mRNA level [10]
"CC/C=C\C/C=C\C/C=C\C/C=C\C/C=C\C/C=C\CCC(=O)O[C@@H](C(=O)O[C@H]1C[C@@]2(O)[C@@H](OC(=O)c3ccccc3)[C@@H]3[C@]4(OC(C)=O)CO[C@@H]4C[C@H](O)[C@@]3(C)C(=O)[C@H](OC(=O)C3CC3)C(=C1C)C2(C)C)[C@H](C=C(C)C)NC(=O)OC(C)(C)C [DHA-SBT-1214, Docosahexaenoic acid conjugate of SBT-1214]",greatly reduced,not a substrate,> 167,complete regression,negligible,two-to-three,5,less than 24 hours,6,effective; also recorded: superior to ABRAXANE® and resulted in tumor clearance,down-regulate stem related genes,remarkable efficacy,,,
Nc1ccn([C@@H]2O[C@H](CO)[C@@H](O)C2(F)F)c(=O)n1 [gemcitabine],,,,,,,,,,,,,6.6,5.65,not significantly higher
